Patent US5817639A, “Purine 4'-thioarabinonucleosides” (Yamasa Corporation, priority 1995, dated 1998)
In brackets after ≈: the same amount, converted by molar mass.

Legend:
HCMV (AD-169 strain) = experiment: Anti-Human Cytomegalovirus activity (plaque formation inhibition in human fetal lung fibroblasts); format: cell-based; details: Human betaherpesvirus 5, AD169, Fibroblast, 50% inhibition of plaque formation, human fibroblasts derived from fetal lungs, 4 days plus further 4-5 days, read-out: ED50 HCMV
Procedure: (§1) 1. Human fibroblasts derived from fetal lungs were subjected to subculturing in Eagle MEM supplemented with 10% semi-fetal calf serum (Mitsubishi Chemical Corporation) at a 1:2-4 split every 4 days.
2. A suspension of cells obtained by splitting their parent cells (1:2) was seeded in a 12-well multi-plate (2 ml/well), followed by culturing for 4 days at 37° C. in a CO2 -incubator.
3. The culture liquid was discarded, and 750 μl of a 5% serum-added Eagle MEM containing 50-100 PFU of AD-169 strain of HCMV was inoculated, and the virus was allowed to be adsorbed for 1 hour at 37° C.
4. Without removing the virus, 750 μl of Hanks' MEM containing the test compound was added, and the resultant mixture was incubated in a CO2 -incubator at 37° C. for 4 days. Generally, a test compound is diluted in serial 1/2 log10, and the maximal concentration is 10 μg/ml.
5. The medium was changed to a fresh 2.5% serum-added Eagle MEM containing 0.8% methylcellulose and the test compound having the same concentration, followed by culturing further for 4-5 days.
(§2) 6. The culture liquid was discarded, and the cells were stained with May-Gruenwald's-Giemsa (×10). Under a stereoscopic light microscope, the number of plaques in each well was counted. Using the equation used in (1) above, the plaque formation inhibitory ratio was obtained.
7. […]

HSV-1 (VR-3 strain) = experiment: Anti-HSV-1 activity (plaque formation inhibition in human fetal lung fibroblasts); format: cell-based, herpes simplex virus type 1; details: Human alphaherpesvirus 1, Fibroblast, 50% inhibition of plaque formation, human fibroblasts derived from fetal lungs, 2-3 days at 37° C., read-out: ED50 HSV-1
Procedure: (§3) 1. Human fibroblasts derived from fetal lungs were subjected to subculturing in Eagle MEM supplemented with 10% semi-fetal calf serum (Mitsubishi Chemical Corporation) at a 1:2-4 split every 4 days. 2. A suspension of cells obtained by splitting their parent cells (1:2) was seeded in a 12-well multi-plate (2 ml/well), followed by culturing for 4-5 days at 37° C. in a CO2 -incubator. 3. The culture liquid was discarded, and Hanks' MEM (250 μl) containing 50-150 PFU of VR-3 strain of HSV-1 or MS strain of HSV-2 was inoculated, and the virus was allowed to be adsorbed for 30 minutes at 37° C. Thereafter, the viral liquid was discarded. 4. A 2.5% serum-added Eagle MEM containing a test compound and 0.8% methylcellulose was added and the resultant mixture was incubated in a CO2 -incubator for 2-3 days at 37° C. Generally, a test compound is diluted in serial 1/2 log10, and the maximal concentration is 10 μg/ml. 5. The culture liquid was discarded, and the cells were stained with a 0.5% crystal violet solution. Under a stereoscopic light microscope, the number of plaques in each well was counted. Using the equation below, the plaque formation inhibitory ratio (percent inhibition) was obtained. […]

HSV-2 (MS strain) = experiment: Anti-HSV-2 activity (plaque formation inhibition in human fetal lung fibroblasts); format: cell-based, herpes simplex virus type 2; details: Human alphaherpesvirus 2, Fibroblast, 50% inhibition of plaque formation, human fibroblasts derived from fetal lungs, 2-3 days at 37° C., read-out: ED50 HSV-2
Procedure: as §3

VZV (Oka strain) = experiment: Anti-Varicella Zoster Virus (VZV) activity (plaque formation inhibition in human fetal lung fibroblasts); format: cell-based; details: Human alphaherpesvirus 3, Fibroblast, read-out: ED50 VZV
Procedure: as §1
2. A suspension of cells obtained by splitting their parent cells (1:2) was seeded in a 12-well multi-plate (2 ml/well), followed by culturing for 4-5 days at 37° C. in a CO2 -incubator.
3. The culture liquid was discarded, and 750 μl of a 5% serum-added Eagle MEM containing 50-100 PFU of Oka strain of VZV was inoculated, and the virus was allowed to be adsorbed for 1 hour at 37° C.
4. Without removing the virus, 750 μl of Hanks' MEM containing the test compound was added, and the resultant mixture was incubated in a CO2 -incubator at 37° C. Generally, a test compound is diluted in serial 1/2 log10, and the maximal concentration is 10 μg/ml.
as §2, with “5. After culturing for 4-5 days, the” for “6. The”, “a 0.5% crystal violet solution.” for “May-Gruenwald's-Giemsa (×10).”
6. The plaque formation inhibitory ratio was plotted on a graph with respect to the concentration of the test compound (logarithmic representation).

Compound | EC50 (HCMV (AD-169 strain)) [µg/mL] | EC50 (HSV-1 (VR-3 strain)) [µg/mL] | EC50 (HSV-2 (MS strain)) [µg/mL] | EC50 (VZV (Oka strain)) [µg/mL]
Nc1nc2c(ncn2[C@@H]2S[C@H](CO)[C@@H](O)[C@@H]2O)c(=O)[nH]1 [Ib-β, 9-(4-thio-δ-D-arabinofuranosyl)guanine] | 0.011 | 0.49 (≈ 1.64 µM) | 0.59 (≈ 1.97 µM) | 0.11 (≈ 0.368 µM)
Nc1nc(N)c2ncn([C@@H]3S[C@H](CO)[C@@H](O)[C@@H]3O)c2n1 [Ia-β, 9-(4-thio-β-D-arabinofuranosyl)-2,6-diaminopurine] | 0.022 | 0.52 (≈ 1.74 µM) | 0.4 (≈ 1.34 µM) | 0.11 (≈ 0.369 µM)
